Results taken from US4217355A, “Amide therapeutic agents” (Pfizer Inc., priority 1978, dated 1980).

What follows are compounds tested on murine thymus cells (assay: lymphocyte stimulation assay (LSA), in vitro lymphocyte proliferation of murine thymus cells cultured in the presence of Concanavalin A). Conditions: in vitro; Con A present; 48 hours at 37° C.; score at drug level with maximum activity.
Type: cell-based, male C57B1/6 mice
Excerpt: On the other hand, the activity of the compounds of the present invention, as immunoregulator agents, is based on a study of their ability to stimulate, in vitro, the lymphocyte proliferation of murine thymus cells cultured in the presence of Concanavalin A (Con A) by employing the general evaluation procedure of V. J. Merluzzi et al., as described in the Journal of Clinical and Experimental Immunology, Vol. 22, p. 486 (1975).
486 (1975). The cells were derived from male C57B1/6 mice of from 6-8 weeks age, purchased from the Jackson Laboratories of Bar Harbor, Maine and the Con A was obtained from Sigma Chemicals of St. Louis, Missouri. Each cell culture (consisting of 0.10 ml. thymus cells stock solution, 0.05 ml. of Con A stock solution and 0.05 ml. of drug solution) was performed in quadruplicate and cellular proliferation was measured, after 48 hours of incubation at 37° C., by pulsing each culture with ^3 H-thymidine (0.01 ml. of specific activity 1.9 C/mM, obtained from Schwarz-Mann, Inc. of Orangeburg, N.Y.) and then determining the incorporation of ^3 H-thymidine into cellular desoxyribonucleic acid (DNA) by an assessment of radioactivity using a liquid scintillation counter.
`O=C(CNCC1CCCCC1)Nc1nccs1` [X=H, R1=H, R2=cyclohexylmethyl, N-(2-thiazolyl)-α-cyclohexylmethylaminoacetamide] was tested, and the “LSA Activity” value was “++ (those equal to levamisole (22,000±900 cpm) were scored as ++)”. For `Cc1csc(NC(=O)C(N)C(C)C)n1` (stereo not drawn) [X=CH3, R1=iso-C3 H7, R2=hydrogen, N-(4-methyl-2-thiazolyl)-α-aminoisovaleramide], the “LSA Activity” value was “+++ (those having an activity greater than levamisole (27,000±1,000 cpm) were scored as +++)”. With `COc1ccc(CNCC(=O)Nc2nccs2)cc1` [X=H, R1=H, R2=p-methoxybenzyl, N-(2-thiazolyl)-α-(p-methoxybenzylamino)acetamide] the “LSA Activity” value was “+++ (those having an activity greater than levamisole (27,000±1,000 cpm) were scored as +++)”. With `O=C(CNCC1CCCO1)Nc1nccs1` (stereo not drawn) [X=H, R1=H, R2=2-tetrahydrofurfuryl, N-(2-thiazolyl)-α-(2-tetrahydrofurfurylamino)acetamide] the “LSA Activity” value was “++ (those equal to levamisole (22,000±900 cpm) were scored as ++)”. With `O=C(CNCc1cccs1)Nc1nccs1` [X=H, R1=H, R2=2-thenyl, N-(2-thiazolyl)-α-(2-thenylamino)acetamide] the “LSA Activity” value was “+++ (those having an activity greater than levamisole (27,000±1,000 cpm) were scored as +++)”. `Cc1csc(NC(=O)CNCCc2ccccc2)n1` [X=CH3, R1=H, R2=β-phenylethyl, N-(4-methyl-2-thiazolyl)-α-(β-phenylethylamino)acetamide] was tested, and the “LSA Activity” value was “+++ (those having an activity greater than levamisole (27,000±1,000 cpm) were scored as +++)”. In the case of `CCCCNCC(=O)Nc1nccs1` [X=H, R1=H, R2=n-butyl, N-(2-thiazolyl)-α-(n-butylamino)acetamide], the “LSA Activity” value was “++ (those equal to levamisole (22,000±900 cpm) were scored as ++)”. For `O=C(CNCc1ccc(C(F)(F)F)cc1)Nc1nccs1` [X=H, R1=H, R2=p-trifluoromethylbenzyl], the “LSA Activity” value was “++ (those equal to levamisole (22,000±900 cpm) were scored as ++)”. `Cc1ccc(CNCC(=O)Nc2nccs2)cc1` [X=H, R1=H, R2=p-methylbenzyl, N-(2-thiazolyl)-α-(p-methylbenzylamino)acetamide] was tested, and the “LSA Activity” value was “+ (those superior to Con A activity but less than levamisole (10,000±700 cpm) were scored as +)”. With `O=C(CNCc1ccc(Cl)cc1)Nc1nccs1` [X=H, R1=H, R2=p-chlorobenzyl, N-(2-thiazolyl)-α-(p-chlorobenzylamino)acetamide] the “LSA Activity” value was “++ (those equal to levamisole (22,000±900 cpm) were scored as ++)”. For `CC(N)C(=O)Nc1nccs1` (stereo not drawn) [X=H, R1=CH3, R2=hydrogen, N-(2-thiazolyl)-α-aminopropionamide], the “LSA Activity” value was “+++ (those having an activity greater than levamisole (27,000±1,000 cpm) were scored as +++)”. In the case of `Cc1csc(NC(=O)C(C)N)n1` (stereo not drawn) [X=CH3, R1=CH3, R2=hydrogen, N-(4-methyl-2-thiazolyl)-α-aminopropionamide], the “LSA Activity” value was “+++ (those having an activity greater than levamisole (27,000±1,000 cpm) were scored as +++)”. With `CCNCC(=O)Nc1nccs1` [X=H, R1=H, R2=ethyl, N-(2-thiazolyl)-α-ethylaminoacetamide] the “LSA Activity” value was “+++ (those having an activity greater than levamisole (27,000±1,000 cpm) were scored as +++)”. In the case of `Cc1csc(NC(=O)C2CCCCN2)n1` (centres unmarked) [X=CH3, R=2-piperidyl, N-(4-methyl-2-thiazolyl)piperidine-2-carboxamide], the “LSA Activity” value was “+++ (those having an activity greater than levamisole (27,000±1,000 cpm) were scored as +++)”. In the case of `NCC(=O)Nc1nccs1` [X=H, R1=H, R2=hydrogen, N-(2-thiazolyl)-α-aminoacetamide], the “LSA Activity” value was “++ (those equal to levamisole (22,000±900 cpm) were scored as ++)”. In the case of `CC(C)C(N)C(=O)Nc1nccs1` (stereo not drawn) [X=H, R1=iso-C3 H7, R2=hydrogen, N-(2-thiazolyl)-α-aminoisovaleramide], the “LSA Activity” value was “++ (those equal to levamisole (22,000±900 cpm) were scored as ++)”. For `Cc1csc(NC(=O)CNCc2ccccc2)n1` [X=CH3, R1=H, R2=benzyl, N-(4-methyl-2-thiazolyl)-α-benzylaminoacetamide], the “LSA Activity” value was “+++ (those having an activity greater than levamisole (27,000±1,000 cpm) were scored as +++)”.
